Source: PubChem BioAssay (NCI)
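Five concentrations, 48 hours, 96-well plates. Definition used: TGI = concentration required for complete inhibition of growth.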 Where a SMILES comes first, the peptide text is derived from it. The star is where a group is joined. Fmoc = O=C(OCC1c2ccccc2-c2ccccc21)*; Boc = CC(C)(C)OC(=O)*

Assays:
Assay in all cases: growth of human tumour cells (NCI), 48 h
HCC-2998 colon = system: HCC-2998 colon
HL-60(TB) leukemia = system: HL-60(TB) leukemia
LOX IMVI melanoma = system: LOX IMVI melanoma
MDA-N = system: MDA-N
NCI/ADR-RES ovarian = system: NCI/ADR-RES ovarian
OVCAR-3 ovarian = system: OVCAR-3 ovarian
OVCAR-4 ovarian = system: OVCAR-4 ovarian
SF-268 CNS = system: SF-268 CNS
SW-620 colon = system: SW-620 colon
T-47D breast = system: T-47D breast

N=C(N)SCc1ccc(Cl)cc1Cl (tested in a mixture with another compound)
TGI (HCC-2998 colon): 21.5 µM | TGI (HL-60(TB) leukemia): 22.4 µM | TGI (LOX IMVI melanoma): 38.8 µM | TGI (MDA-N): 21.6 µM | TGI (NCI/ADR-RES ovarian): 73.9 µM | TGI (OVCAR-3 ovarian): 28.1 µM | TGI (OVCAR-4 ovarian): 38.8 µM | TGI (SF-268 CNS): 40 µM | TGI (SW-620 colon): 37.6 µM | TGI (T-47D breast): 39 µM

CC1OC(O[C@H]2C3C=CO[C@@H](OC4OC(CO)C(O)C(O)C4O)C3[C@@]3(COC(=O)/C=C/c4ccc(O)cc4)O[C@@H]23)C(O)C(O)C1O (stereo not given in full)
TGI (HCC-2998 colon): > 100 µM | TGI (HL-60(TB) leukemia): > 100 µM | TGI (LOX IMVI melanoma): > 100 µM | TGI (MDA-N): > 100 µM | TGI (NCI/ADR-RES ovarian): > 100 µM | TGI (OVCAR-3 ovarian): > 100 µM | TGI (OVCAR-4 ovarian): > 100 µM | TGI (SF-268 CNS): > 100 µM | TGI (SW-620 colon): > 100 µM | TGI (T-47D breast): > 100 µM

N#CCCC1(CCC#N)CCCCCCCCC(CCC#N)(CCC#N)C(=O)C1=O
TGI (HCC-2998 colon): > 100 µM | TGI (HL-60(TB) leukemia): > 100 µM | TGI (LOX IMVI melanoma): > 100 µM | TGI (MDA-N): > 100 µM | TGI (NCI/ADR-RES ovarian): > 100 µM | TGI (OVCAR-3 ovarian): > 100 µM | TGI (OVCAR-4 ovarian): > 100 µM | TGI (SF-268 CNS): > 100 µM | TGI (SW-620 colon): > 100 µM | TGI (T-47D breast): > 100 µM

COC(=O)C1CCC(=O)N1C(c1ccc(OC)cc1)c1ccc(OC)cc1 (stereo not given)
TGI (HCC-2998 colon): > 100 µM | TGI (HL-60(TB) leukemia): > 100 µM | TGI (LOX IMVI melanoma): > 100 µM | TGI (MDA-N): > 100 µM | TGI (NCI/ADR-RES ovarian): > 100 µM | TGI (OVCAR-3 ovarian): > 100 µM | TGI (OVCAR-4 ovarian): > 100 µM | TGI (SF-268 CNS): > 100 µM | TGI (SW-620 colon): > 100 µM | TGI (T-47D breast): > 100 µM

Cc1cc(C)c2c(n1)S(=O)(=O)N(CCCN1CCN(c3cccc(C(F)(F)F)c3)CC1)c1c-2nn(C)c1C
TGI (HCC-2998 colon): > 100 µM | TGI (HL-60(TB) leukemia): > 100 µM | TGI (LOX IMVI melanoma): > 100 µM | TGI (MDA-N): > 100 µM | TGI (NCI/ADR-RES ovarian): > 100 µM | TGI (OVCAR-3 ovarian): > 100 µM | TGI (OVCAR-4 ovarian): > 100 µM | TGI (SF-268 CNS): > 100 µM | TGI (SW-620 colon): > 100 µM | TGI (T-47D breast): > 100 µM

CCOC(=O)C(Cl)(NC(=O)c1c(F)c(F)c(F)c(F)c1F)C(F)(F)F (stereo not given)
TGI (HCC-2998 colon): > 100 µM | TGI (HL-60(TB) leukemia): > 100 µM | TGI (LOX IMVI melanoma): > 100 µM | TGI (MDA-N): > 100 µM | TGI (NCI/ADR-RES ovarian): > 100 µM | TGI (OVCAR-3 ovarian): > 100 µM | TGI (OVCAR-4 ovarian): > 100 µM | TGI (SF-268 CNS): > 100 µM | TGI (SW-620 colon): > 100 µM | TGI (T-47D breast): > 100 µM

CC(C)(C)OC(=O)NCCCCC(NC(=O)OCC1c2ccccc2-c2ccccc21)C(=O)N1CCCC1C(=O)NCC(N)=O (stereo not drawn) (Fmoc-Lys(Boc)-Pro-Gly-NH2; configuration not given here)
TGI (HCC-2998 colon): > 100 µM | TGI (HL-60(TB) leukemia): > 100 µM | TGI (LOX IMVI melanoma): 40 µM | TGI (MDA-N): 49.9 µM | TGI (NCI/ADR-RES ovarian): > 100 µM | TGI (OVCAR-3 ovarian): > 100 µM | TGI (OVCAR-4 ovarian): 44.6 µM | TGI (SF-268 CNS): > 100 µM | TGI (SW-620 colon): > 100 µM | TGI (T-47D breast): > 100 µM

COC(=O)/C=C/c1ccc2c(c1)CC1(C2)Cc2cc3c(cc2C1=O)CCC3 (stereo not given)
TGI (HCC-2998 colon): > 100 µM | TGI (HL-60(TB) leukemia): > 100 µM | TGI (LOX IMVI melanoma): > 100 µM | TGI (MDA-N): > 100 µM | TGI (NCI/ADR-RES ovarian): > 100 µM | TGI (OVCAR-3 ovarian): 43.7 µM | TGI (OVCAR-4 ovarian): > 100 µM | TGI (SF-268 CNS): > 100 µM | TGI (SW-620 colon): > 100 µM | TGI (T-47D breast): 81.8 µM

CC(C)C1=CCC2C(=C1)CCC1C(C)(C(=O)O)CCCC21C (stereo not given) (tested in a mixture with another compound)
TGI (HCC-2998 colon): > 100 µM | TGI (HL-60(TB) leukemia): > 100 µM | TGI (LOX IMVI melanoma): > 100 µM | TGI (MDA-N): > 100 µM | TGI (NCI/ADR-RES ovarian): > 100 µM | TGI (OVCAR-3 ovarian): > 100 µM | TGI (OVCAR-4 ovarian): > 100 µM | TGI (SF-268 CNS): > 100 µM | TGI (SW-620 colon): > 100 µM | TGI (T-47D breast): > 100 µM

NCCCNC1(c2cc3ccccc3s2)CCCCC1
TGI (HCC-2998 colon): 2.98 µM | TGI (HL-60(TB) leukemia): 14.8 µM | TGI (LOX IMVI melanoma): 6.86 µM | TGI (MDA-N): 3.56 µM | TGI (NCI/ADR-RES ovarian): 30.4 µM | TGI (OVCAR-3 ovarian): 22.6 µM | TGI (OVCAR-4 ovarian): 25.5 µM | TGI (SF-268 CNS): 24.7 µM | TGI (SW-620 colon): 21.2 µM | TGI (T-47D breast): 6.96 µM

CC(=O)OCC1OC(SC2OC(COC(C)=O)C(OC(C)=O)C(OC(C)=O)C2OC(C)=O)C(OC(C)=O)C(OC(C)=O)C1OC(C)=O (stereo not given)
TGI (HCC-2998 colon): > 100 µM | TGI (HL-60(TB) leukemia): > 100 µM | TGI (LOX IMVI melanoma): > 100 µM | TGI (MDA-N): > 100 µM | TGI (NCI/ADR-RES ovarian): > 100 µM | TGI (OVCAR-3 ovarian): > 100 µM | TGI (OVCAR-4 ovarian): > 100 µM | TGI (SF-268 CNS): > 100 µM | TGI (SW-620 colon): > 100 µM | TGI (T-47D breast): > 100 µM

O=C1/C(=C/c2ccccc2O)N=C(c2ccccc2)N1c1nc2ccccc2s1
TGI (HCC-2998 colon): 35.4 µM | TGI (HL-60(TB) leukemia): 2.97 µM | TGI (LOX IMVI melanoma): > 100 µM | TGI (MDA-N): 8.55 µM | TGI (NCI/ADR-RES ovarian): 52.1 µM | TGI (OVCAR-3 ovarian): 54.3 µM | TGI (OVCAR-4 ovarian): > 100 µM | TGI (SF-268 CNS): 77.7 µM | TGI (SW-620 colon): > 100 µM | TGI (T-47D breast): > 100 µM

CC(C)[Si](OC1=CCC[C@H]2NC(=O)[C@@H](Cc3ccccc3)[C@@]12C)(C(C)C)C(C)C
TGI (HCC-2998 colon): 4.42 µM | TGI (HL-60(TB) leukemia): 7.82 µM | TGI (LOX IMVI melanoma): 11.2 µM | TGI (MDA-N): 14.2 µM | TGI (NCI/ADR-RES ovarian): 21.7 µM | TGI (OVCAR-3 ovarian): 19.7 µM | TGI (OVCAR-4 ovarian): 19.7 µM | TGI (SF-268 CNS): 29.1 µM | TGI (SW-620 colon): 9.16 µM | TGI (T-47D breast): 12.2 µM

C#CC1(O)C(COP(=O)(O)OCC2OC(n3ccc(NCCCCCCCCCCCCCCCCCC)nc3=O)C(O)C2O)OC(n2ccc(N)nc2=O)C1O (stereo not given)
TGI (HCC-2998 colon): > 34.5 µM | TGI (HL-60(TB) leukemia): 19.5 µM | TGI (LOX IMVI melanoma): 11.1 µM | TGI (MDA-N): 70.6 µM | TGI (NCI/ADR-RES ovarian): 37.3 µM | TGI (OVCAR-3 ovarian): 62.1 µM | TGI (OVCAR-4 ovarian): 34.8 µM | TGI (SF-268 CNS): 38.1 µM | TGI (SW-620 colon): > 50 µM | TGI (T-47D breast): > 38.4 µM

Cc1noc2nnn(-c3ccc(Cl)cc3)c(=O)c12
TGI (HCC-2998 colon): 9.7 µM | TGI (HL-60(TB) leukemia): 3.57 µM | TGI (LOX IMVI melanoma): 11.4 µM | TGI (MDA-N): 17.9 µM | TGI (NCI/ADR-RES ovarian): 29.8 µM | TGI (OVCAR-3 ovarian): 6.83 µM | TGI (OVCAR-4 ovarian): 57.3 µM | TGI (SF-268 CNS): 22.1 µM | TGI (SW-620 colon): 5.41 µM | TGI (T-47D breast): 10.8 µM

CC1(CCCO)CCCCCCCCCC(C)(CCCO)C1=O (stereo not given)
TGI (HCC-2998 colon): > 100 µM | TGI (HL-60(TB) leukemia): > 100 µM | TGI (LOX IMVI melanoma): > 100 µM | TGI (MDA-N): > 100 µM | TGI (NCI/ADR-RES ovarian): > 100 µM | TGI (OVCAR-3 ovarian): > 100 µM | TGI (OVCAR-4 ovarian): > 100 µM | TGI (SF-268 CNS): > 100 µM | TGI (SW-620 colon): > 100 µM | TGI (T-47D breast): > 100 µM

O=C/C=C/c1ccco1
TGI (HCC-2998 colon): > 100 µM | TGI (HL-60(TB) leukemia): > 100 µM | TGI (LOX IMVI melanoma): > 100 µM | TGI (MDA-N): > 100 µM | TGI (NCI/ADR-RES ovarian): > 100 µM | TGI (OVCAR-3 ovarian): > 100 µM | TGI (OVCAR-4 ovarian): > 100 µM | TGI (SF-268 CNS): > 100 µM | TGI (SW-620 colon): > 100 µM | TGI (T-47D breast): > 100 µM
